From patent publication US8278288B2, “Organosiloxanes containing ester derivatives of ascorbic acid” (Dow Corning Corporation, priority 2007, dated 2012)
Read-outs that look alike come from different tables or passages of the source. Marks after values point to notes of the source that are not given here.

Experiments:
[1] = Solubility in various personal care solvents
Description: A 36 wt % mixture of the referenced sample and listed solvents were prepared in a glass vial. The sealed glass vials containing the mixtures were then placed in a 60° C. water bath and periodically shaken and observed.

[2] = test system: Melanoderm tissue model MEL 300 A; test: Skin whitening effect: melanin concentration in MelanoDerm tissue model; type: cell-based, human
Description: This example illustrates cell viability properties and efficacy of skin lightening formulations according to the present invention. In particular, two formulations according to the present invention (containing AUTS as prepared according to Example 4), water (a negative control), 1% kojic acid (Sigma, Wis.) in water (positive control), and ascorbyl tetraisopalmitate in D5 (decamethylcyclopentasiloxane) were assayed and compared for cell viability and skin lightening efficacy (see Table 1) MELANODERM™ cell viability was tested by MTT assay after exposure to test and reference preparations. The assays were carried out using Melanoderm tissue model MEL 300 A cell line (MELANODERM tissue model available from MatTek, Ashland, Mass.), This melanoderm model consists of normal, human-derived epidermal keratinocytes and melanocytes that have been co-cultured to form a multilayer, highly differentiated model of human epidermis. […] (Cell viability with both materials in D5 at 10 and 25 μL dose was >90%). Skin whitening effect was evaluated by measuring melanin concentration (μg/ml) after six applications of each preparation.

[3] = 10 μl dose, six applications, in D5 (AUTS 3.2 wt %, VC-IP 6.4%)
[4] = 25 μl dose, six applications, in D5 (AUTS 3.2 wt %, VC-IP 6.4%)
[5] = 36 wt % mixture, 60° C. water bath, ** = nearly clear to hazy solution, gels when cooled to room temperature

Compound | Solubility in A = C12-15 Alkyl Benzoate (FINSOLV TN) [1] | Solubility in B = Cyclopentasiloxane (Dow/Corning 245 Fluid) [1] | Solubility in C = Squalane (Uniqema PRIPURE 3759) [1] | Solubility in D = Tricaprylin (TRIVENT OC-G) [1] | Solubility in Water [1] | Melanin concentration at Day 10, Average [2, 3] | Melanin concentration at Day 10, Average [2, 4] | also measured
Bis-Ascorbyl Undecyl Tetramethyldisiloxane [Comparative sample #1] | No | No | No | No | Yes* | – | – | –
CCCCCCCCC(CCCCCC)C(=O)OC[C@H](OC(=O)C(CCCCCC)CCCCCCCC)[C@H]1OC(=O)C(OC(=O)C(CCCCCC)CCCCCCCC)=C1OC(=O)C(CCCCCC)CCCCCCCC (some centres unmarked) [VC-IP, ascorbyl tetraisopalmitate] | – | – | – | – | – | 57.8* μg/ml | 55.2** μg/ml | –
O=c1cc(CO)occ1O [Kojic Acid, kojic acid] | – | – | – | – | – | – | – | Melanin concentration at Day 10, Average ([2]; 25 μL dose, 1 wt % in water, six applications (positive control)): 41.9 µg/mL
C[Si](C)(C)O[Si](C)(CCCCCCCCCCC(=O)OCC(O)C1OC(=O)C(O)=C1O)O[Si](C)(C)C (centres unmarked) [AUTS, Ascorbyl Undecyl Trisiloxane] | – | – | – | – | – | 37.4* μg/ml | 26.6** μg/ml | Solubility in Water ([1]; 36 wt % mixture, 60° C. water bath, * = translucent mixture that thickens to a viscous hazy liquid when cooled): No; Solubility in A = C12-15 Alkyl Benzoate (FINSOLV TN) [1, 5]: Yes**; Solubility in B = Cyclopentasiloxane (Dow/Corning 245 Fluid) [1, 5]: Yes**; Solubility in C = Squalane (Uniqema PRIPURE 3759) [1, 5]: Yes**; Solubility in E = Caprylic/Capric Triglyceride [1, 5]: Yes**
Bis-Ascorbyl Undecyl Polydimethylsiloxane [Comparative sample #2] | Yes | No | No | Yes | No | – | – | –
